Measured values reported in the NIST ThermoML archive (doi:10.1021/je200371n).
Numbers after ± are expanded uncertainties.

Details: Gas

## S [hydrogen sulfide]
291.61 K, Mass density=0.74 kg/m3
  viscosity: 0.01186 ± 0.00034 mPa·s
292.3 K, Mass density=0.74 kg/m3
  viscosity: 0.01186 ± 0.00034 mPa·s
292.46 K, Mass density=0.74 kg/m3
  viscosity: 0.01187 ± 0.00034 mPa·s
292.77 K, Mass density=0.74 kg/m3
  viscosity: 0.01188 ± 0.00034 mPa·s
296.89 K, Mass density=0.74 kg/m3
  viscosity: 0.01207 ± 0.00034 mPa·s
297.01 K, Mass density=0.74 kg/m3
  viscosity: 0.01206 ± 0.00034 mPa·s
323.94 K, Mass density=0.74 kg/m3
  viscosity: 0.01319 ± 0.00035 mPa·s
323.96 K, Mass density=0.74 kg/m3
  viscosity: 0.01318 ± 0.00035 mPa·s
350.47 K, Mass density=0.74 kg/m3
  viscosity: 0.01429 ± 0.00037 mPa·s
350.59 K, Mass density=0.74 kg/m3
  viscosity: 0.0143 ± 0.00037 mPa·s
378.01 K, Mass density=0.74 kg/m3
  viscosity: 0.01543 ± 0.00038 mPa·s
378.19 K, Mass density=0.74 kg/m3
  viscosity: 0.01544 ± 0.00038 mPa·s
405.76 K, Mass density=0.74 kg/m3
  viscosity: 0.01656 ± 0.00039 mPa·s
405.86 K, Mass density=0.74 kg/m3
  viscosity: 0.01657 ± 0.00039 mPa·s
433.66 K, Mass density=0.74 kg/m3
  viscosity: 0.01769 ± 0.00041 mPa·s
433.81 K, Mass density=0.74 kg/m3
  viscosity: 0.0177 ± 0.00041 mPa·s
461.72 K, Mass density=0.74 kg/m3
  viscosity: 0.01881 ± 0.00042 mPa·s
461.92 K, Mass density=0.74 kg/m3
  viscosity: 0.01882 ± 0.00042 mPa·s
490.09 K, Mass density=0.74 kg/m3
  viscosity: 0.01993 ± 0.00043 mPa·s
490.2 K, Mass density=0.74 kg/m3
  viscosity: 0.01992 ± 0.00043 mPa·s
518.68 K, Mass density=0.74 kg/m3
  viscosity: 0.021 ± 0.00043 mPa·s
518.75 K, Mass density=0.74 kg/m3
  viscosity: 0.021 ± 0.00043 mPa·s
542.48 K, Mass density=0.74 kg/m3
  viscosity: 0.0219 ± 0.00046 mPa·s
542.61 K, Mass density=0.74 kg/m3
  viscosity: 0.0219 ± 0.00046 mPa·s
565.19 K, Mass density=0.74 kg/m3
  viscosity: 0.02274 ± 0.00046 mPa·s
565.29 K, Mass density=0.74 kg/m3
  viscosity: 0.02275 ± 0.00046 mPa·s
593.95 K, Mass density=0.74 kg/m3
  viscosity: 0.02379 ± 0.00047 mPa·s
594.02 K, Mass density=0.74 kg/m3
  viscosity: 0.02379 ± 0.00047 mPa·s
623.07 K, Mass density=0.74 kg/m3
  viscosity: 0.02482 ± 0.00048 mPa·s
623.19 K, Mass density=0.74 kg/m3
  viscosity: 0.02482 ± 0.00048 mPa·s
652.3 K, Mass density=0.74 kg/m3
  viscosity: 0.02584 ± 0.0005 mPa·s
652.32 K, Mass density=0.74 kg/m3
  viscosity: 0.02584 ± 0.0005 mPa·s
681.36 K, Mass density=0.74 kg/m3
  viscosity: 0.02682 ± 0.00051 mPa·s
682.03 K, Mass density=0.74 kg/m3
  viscosity: 0.02684 ± 0.00051 mPa·s

## C [methane]
289.05 K, Mass density=0.498 kg/m3
  viscosity: 0.01081 ± 0.00023 mPa·s
290.41 K, Mass density=0.498 kg/m3
  viscosity: 0.01083 ± 0.00023 mPa·s
291.93 K, Mass density=0.344 kg/m3
  viscosity: 0.01089 ± 0.00023 mPa·s
292.96 K, Mass density=0.344 kg/m3
  viscosity: 0.01092 ± 0.00023 mPa·s
296.43 K, Mass density=0.498 kg/m3
  viscosity: 0.01103 ± 0.00023 mPa·s
296.57 K, Mass density=0.498 kg/m3
  viscosity: 0.01105 ± 0.00023 mPa·s
297.08 K, Mass density=0.344 kg/m3
  viscosity: 0.01106 ± 0.00023 mPa·s
323.43 K, Mass density=0.498 kg/m3
  viscosity: 0.01189 ± 0.00024 mPa·s
323.86 K, Mass density=0.344 kg/m3
  viscosity: 0.01191 ± 0.00024 mPa·s
350.55 K, Mass density=0.344 kg/m3
  viscosity: 0.01273 ± 0.00026 mPa·s
350.64 K, Mass density=0.498 kg/m3
  viscosity: 0.01272 ± 0.00026 mPa·s
378.15 K, Mass density=0.344 kg/m3
  viscosity: 0.01356 ± 0.00026 mPa·s
378.25 K, Mass density=0.498 kg/m3
  viscosity: 0.01355 ± 0.00026 mPa·s
405.88 K, Mass density=0.344 kg/m3
  viscosity: 0.01436 ± 0.00027 mPa·s
406.03 K, Mass density=0.498 kg/m3
  viscosity: 0.01436 ± 0.00027 mPa·s
433.83 K, Mass density=0.344 kg/m3
  viscosity: 0.01514 ± 0.00028 mPa·s
434.02 K, Mass density=0.498 kg/m3
  viscosity: 0.01514 ± 0.00028 mPa·s
461.75 K, Mass density=0.498 kg/m3
  viscosity: 0.0159 ± 0.00029 mPa·s
461.85 K, Mass density=0.344 kg/m3
  viscosity: 0.01591 ± 0.00029 mPa·s
490.13 K, Mass density=0.344 kg/m3
  viscosity: 0.01666 ± 0.00029 mPa·s
490.15 K, Mass density=0.498 kg/m3
  viscosity: 0.01665 ± 0.00029 mPa·s
518.8 K, Mass density=0.498 kg/m3
  viscosity: 0.0174 ± 0.0003 mPa·s
518.83 K, Mass density=0.344 kg/m3
  viscosity: 0.01739 ± 0.0003 mPa·s
542.36 K, Mass density=0.498 kg/m3
  viscosity: 0.01798 ± 0.00031 mPa·s
542.6 K, Mass density=0.344 kg/m3
  viscosity: 0.01799 ± 0.00031 mPa·s
565.1 K, Mass density=0.498 kg/m3
  viscosity: 0.01854 ± 0.00032 mPa·s
565.38 K, Mass density=0.344 kg/m3
  viscosity: 0.01856 ± 0.00032 mPa·s
593.84 K, Mass density=0.498 kg/m3
  viscosity: 0.01924 ± 0.00032 mPa·s
594.08 K, Mass density=0.344 kg/m3
  viscosity: 0.01925 ± 0.00032 mPa·s
623.05 K, Mass density=0.498 kg/m3
  viscosity: 0.01993 ± 0.00034 mPa·s
623.33 K, Mass density=0.344 kg/m3
  viscosity: 0.01995 ± 0.00033 mPa·s
652.07 K, Mass density=0.498 kg/m3
  viscosity: 0.02061 ± 0.00036 mPa·s
652.41 K, Mass density=0.344 kg/m3
  viscosity: 0.02062 ± 0.00034 mPa·s
681.93 K, Mass density=0.498 kg/m3
  viscosity: 0.02127 ± 0.00035 mPa·s
682.14 K, Mass density=0.344 kg/m3
  viscosity: 0.0213 ± 0.00035 mPa·s
